From patent US6579686B2, “Constitutive androstane receptor” (SmithKline Beecham Corporation, priority 2000, dated 2003) come the findings set out here.

For data set [1], the target named is T1, mouse CAR (mCAR) (Mus musculus, UniProt O35627).
T1 sequence (O35627 1-358): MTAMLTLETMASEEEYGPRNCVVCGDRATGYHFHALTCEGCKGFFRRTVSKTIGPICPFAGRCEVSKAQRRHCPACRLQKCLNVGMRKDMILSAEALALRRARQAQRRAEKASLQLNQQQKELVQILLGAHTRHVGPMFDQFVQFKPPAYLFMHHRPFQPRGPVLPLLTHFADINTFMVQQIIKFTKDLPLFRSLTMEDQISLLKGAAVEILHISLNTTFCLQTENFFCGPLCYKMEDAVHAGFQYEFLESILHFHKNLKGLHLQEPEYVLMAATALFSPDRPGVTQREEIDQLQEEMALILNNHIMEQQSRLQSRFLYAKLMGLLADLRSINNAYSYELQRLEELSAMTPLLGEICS
As to the kind of experiment: in vitro.

Data set [2] concerns the target T2, human CAR (hCAR) (Homo sapiens, UniProt Q14994).
T2 sequence (Q14994 1-348 isoform Q14994-2): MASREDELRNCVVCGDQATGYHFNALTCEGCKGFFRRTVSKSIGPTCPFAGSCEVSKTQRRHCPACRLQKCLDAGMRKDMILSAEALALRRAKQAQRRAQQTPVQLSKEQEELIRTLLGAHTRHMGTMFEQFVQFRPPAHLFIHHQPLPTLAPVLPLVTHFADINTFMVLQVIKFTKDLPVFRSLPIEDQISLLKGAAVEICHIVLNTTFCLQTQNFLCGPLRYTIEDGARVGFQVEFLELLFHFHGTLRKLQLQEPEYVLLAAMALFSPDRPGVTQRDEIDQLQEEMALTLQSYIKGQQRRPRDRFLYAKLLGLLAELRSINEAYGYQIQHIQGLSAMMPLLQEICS
The experiment in a line: in vitro.

In data set [3] the target is T2, human CAR (hCAR). The following applies: for EC50: read-out: EC50 values for activation/deactivation of CAR, HCAR, transfected CV-1 cells, 0.0001 μM to 10 μM in half-log steps, EC50 given only for ≧ 2-fold activation or deactivation relative to basal activity.
The target of data set [4] is T2, human CAR (hCAR). As to the kind of experiment: cell-based.
For another data set, the target named is T3, hCAR LBD (Homo sapiens, UniProt Q14994).
T3 construct: or 103-348 of hCAR; made in house; host or cells: E. coli BL21(DE3), pRSETa
T3 sequence (Q14994 103-348 isoform Q14994-2): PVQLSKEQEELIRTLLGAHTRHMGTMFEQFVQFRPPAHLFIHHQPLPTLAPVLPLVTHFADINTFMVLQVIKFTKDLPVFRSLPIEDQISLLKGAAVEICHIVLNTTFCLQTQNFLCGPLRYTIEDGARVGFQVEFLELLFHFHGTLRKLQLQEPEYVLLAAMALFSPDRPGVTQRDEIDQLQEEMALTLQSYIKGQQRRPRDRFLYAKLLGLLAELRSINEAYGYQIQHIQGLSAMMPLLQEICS
As to the kind of experiment: Scintillation proximity binding assay with [3H]clotrimazole. Conditions: 10 nM [3H]clotrimazole, 10 μM competitor. A general note: Scintillation proximity formats need no separation of bound from free tracer.

The target of data set [5] is T1, mouse CAR (mCAR).
The target in a further data set is T4, hCAR/SRC-1 interaction (Homo sapiens, UniProt Q14994).
T4 construct: or 103-348 of hCAR; made in house; host or cells: E. coli BL21(DE3), pRSETa
T4 sequence (Q14994 103-348 isoform Q14994-2): T3 sequence (Q14994 103-348 isoform Q14994-2)
The experiment in a line: FRET ligand sensing assay, hCAR LBD with SRC-1 LXXLL peptide. It is filed as biochemical. Conditions: SRC-1 peptide amino acids 676 to 700.

Where [6] appears, read: read-out: EC50 values for activation/deactivation of CAR, mCAR, transfected CV-1 cells, 0.0001 μM to 10 μM in half-log steps, EC50 given only for ≧ 2-fold activation or deactivation relative to basal activity.
The mark [7] stands for this setting: CV-1 cells, PB tested at 0.5 mM (high concentrations).

“Also recorded” adds a separate entry of the source. Where two headings read alike, the source gives them in different places.

Protocol for hCAR/SRC-1 interaction: The mCAR and hCAR LBD were each expressed in E. coli strain BL21(DE3) as a polyhistidine-tagged fusion protein. […] Cells were lysed by passing 3 times through an APV Rannie MINI-lab homogenizer and cell debris was removed by centrifugation (30 minutes, 20,000 g, 4° C.). After adjusting the imidazole concentration to 50 mM, the lysate was loaded onto a column packed with Sepharose [Ni^++ charged] Chelation resin (Pharmacia) and pre-equilibrated with TBS pH 8.0/50 mM imidazole. […] The recombinant protein was eluted with a gradient from 50 to 500 mM imidazole. Column peak fractions were pooled immediately and diluted 5-7 fold with 25 mM Tris pH 8.0, containing 5% 1,2-propanediol, 0.5 mM EDTA and 5 mM DTT. The diluted protein sample was then loaded onto a column packed with Poros HQ resin (PerSeptive Biosystems) and eluted with a gradient from 0-500 mM NaCl. Peak fractions were pooled and concentrated using Centri-prep 10K (Amicon) and subjected to size exclusion, using a column packed with Superdex-75 resin (Pharmacia) pre-equilibrated with TBS, pH 8.0, containing 5% 1,2-propanediol, 0.5 mM EDTA and 5 mM DTT.
The purified CAR LBDs were desalted/buffer exchanged using PD-10 gel filtration columns into PBS [100 mM NaPhosphate, pH 7.2, 150 mM NaCl]. […]
Fluorescence resonance energy transfer (FRET) ligand sensing assay. […]

Turning to `C[C@@H]1C[C@H]2[C@@H]3CCC4=CC(=O)C=C[C@]4(C)[C@@]3(F)[C@@H](O)C[C@]2(C)[C@@]1(O)C(=O)CO` [dexamethasone], the EC50 at 24 h on mouse CAR (mCAR) [1] and on human CAR (hCAR) [2] was > 10 µM throughout.

Regarding `CC#C[C@]1(O)CC[C@H]2[C@@H]3CCC4=CC(=O)CCC4=C3[C@@H](c3ccc(N(C)C)cc3)C[C@@]21C` [RU486], the EC50 at 24 h on mouse CAR (mCAR) [1] and on human CAR (hCAR) [2] was > 10 µM in each case.

Take `CC(=O)[C@H]1CC[C@H]2[C@@H]3CC[C@@H]4CC(=O)CC[C@]4(C)[C@H]3CC[C@]12C` [5β-pregnane-3,20-dione]: the EC50 at 24 h at mouse CAR (mCAR) [1] is > 10 µM. Further, the “activation of hCAR” value on human CAR (hCAR) [3] (CV-1 cells, relative to basal activity) is ~2 fold. This compound also displayed an EC50 at human CAR (hCAR) [4] of 0.67 µM. The “competition with [3H]clotrimazole for binding to hCAR (in words)” value (“competition with [3H]clotrimazole” for short) at hCAR LBD is “competed efficiently”. The “effect on mCAR reporter activity (in words)” value on mouse CAR (mCAR) [5] (CV-1 cells, screened at 10 μM) is on record as “only weak effects”. Besides, at hCAR/SRC-1 interaction, the “effect on hCAR LBD/SRC-1 interaction (in words)” value is reported as “marked increase in the binding of SRC-1 to hCAR”.

For the compound `C[C@@]12CCC[C@H]1[C@@H]1CC[C@H]3C[C@@H](O)CC[C@]3(C)[C@H]1CC2` [androstanol], the “effect on hCAR reporter activity (in words)” value at human CAR (hCAR) [3] (CV-1 cells, screened at 10 μM) is given as “deactivated hCAR, though the effect was not nearly as pronounced as on mCAR”. Moreover, the values for the EC50 on human CAR (hCAR) [3] and at mouse CAR (mCAR) [5] (setting [6]) were > 10 µM and 0.84 µM, respectively. For the same compound, on hCAR LBD, the “competition with [3H]clotrimazole” value is given as “competed efficiently”. The “effect on mCAR reporter activity (in words)” value at mouse CAR (mCAR) [5] (CV-1 cells, screened at 10 μM) is given as “efficacious deactivator of mCAR”. Moreover, the “effect on hCAR LBD/SRC-1 interaction (in words)” value on hCAR/SRC-1 interaction is on record as “disrupted this interaction”.

Take `Clc1ccccc1C(c1ccccc1)(c1ccccc1)n1ccnc1` [clotrimazole]: on human CAR (hCAR) [3] (CV-1 cells, screened at 10 μM), the “effect on hCAR reporter activity (in words)” value is recorded as “efficacious deactivator of hCAR”.

For `Clc1cnc(Oc2ccc(Oc3ncc(Cl)cc3Cl)cc2)c(Cl)c1` [TCPOBOP, 1,4-bis[2-(3,5-dichloropyridyloxy)]benzene], the “effect on hCAR reporter activity (in words)” value on human CAR (hCAR) [3] (CV-1 cells, screened at 10 μM) is reported as “virtually no activity; also recorded: little or no activity”. Besides, the EC50 on human CAR (hCAR) [3] is > 10 µM; on mouse CAR (mCAR) [5] (read-out: EC50 for activation of mCAR, CV-1 cells), ~0.1 µM; on mouse CAR (mCAR) [5] (setting [6]) it was 0.1 µM. Further, the “competition with [3H]clotrimazole” value at hCAR LBD is on record as “did not compete”. Also, on mouse CAR (mCAR) [5] (CV-1 cells, screened at 10 μM), the “effect on mCAR reporter activity (in words)” value is “efficacious activator of mCAR”.

For the compound `CCC1(c2ccccc2)C(=O)NC(=O)NC1=O` [PB, phenobarbital], at human CAR (hCAR) [3] (setting [7]), the “effect on hCAR reporter activity (in words)” value is listed as “weak but reproducible deactivation; also recorded: deactivated hCAR”. For the same compound, the “effect on mCAR reporter activity (in words)” value at mouse CAR (mCAR) [5] (setting [7]) is recorded as “weak but reproducible deactivation”.

For the compound `CCOP(=O)(OCC)C(=Cc1cc(C(C)(C)C)c(O)c(C(C)(C)C)c1)P(=O)(OCC)OCC` [SR12813], the “effect on hCAR reporter activity (in words)” value on human CAR (hCAR) [3] (CV-1 cells, screened at 10 μM) is “little or no effect; also recorded: little or no activity”. For the same compound, the EC50 on human CAR (hCAR) [3] and on mouse CAR (mCAR) [5] (setting [6]) was > 10 µM throughout. Further, the “competition with [3H]clotrimazole” value at hCAR LBD is listed as “did not compete”. Also, on mouse CAR (mCAR) [5] (CV-1 cells, screened at 10 μM), the “effect on mCAR reporter activity (in words)” value is listed as “little or no effect”.
